From patent US7544700B2, “Pharmaceutically active sulfonamide derivatives bearing both lipophilic and ionisable moieties as inhibitors of protein JunKinases” (Laboratoires Serono SA, priority 2000, dated 2009)
Where a name gives a salt, the structure may show the parent alone.

Experiments:
[1] = target: JNK1 (Homo sapiens, UniProt P45983); test: JNK1 inhibition; type: biochemical; settings: read-out: inhibition (IC50) with regard to JNK1
[2] = Solubility in water; type: physicochemical; settings: pH 7.4, aqueous buffer, pH of 7.4 at room temperature
Procedure: The compounds have been assessed in respect of their solubility in water, at a pH of 7.4 at room temperature. In general the solubility of compounds of formula (I) is in a range of at least 50 μg/mL solvent, more preferably of at least 100 μg/mL solvent. For instance compounds (63), (163), (198) display a solubility in water of at least 200 μg/mL solvent.

[3] = test system: Male C57BL/6 mice; test: LPS induced endotoxin shock in mice; type: in vivo; settings: intravenously 15 min before LPS challenge
Procedure: Endotoxins are the lipopolysaccharides (LPS) constituents of the outer membrane of Gram negative bacteria. […] As LPS is known to stimulate the activation of various MAP kinase pathways, including JNK (35), the ability of JNK inhibitors can be tested after the JNK signaling pathway has been switched on by a LPS challenge.
LPS (S. abortus-Galanos Lab.-) is injected (200 μg/kg, i.v.) to Male C57BL/6 mice to induce endotoxin shock. Compounds according to formula I (0.1, 1, 10 mg/kg) or NaCl ([…]) are injected intravenously (10 mL/kg) 15 min before the LPS challenge. Heparinized blood was obtained from the orbital sinus at different time points after the LPS challenge, and the blood was centrifuged at 9'000 rpm for 10 min at 4° C. to collect supernatent. Measurement of cytokines production such as TNFα and IFNγ by mouse is performed with an ELISA kit such as Duoset® DY410 for TNFα and DY 485 for IFN γ. Other ELISA assays such as described in (36) can be used.

[4] = test system: Sympathetic neurons from superior cervical ganglia (SCG); test: Sympathetic neuron culture and survival assay; type: cell-based, rat; settings: at 3 μM; anti NGF antibody induced cell death, MTT after 24 hours
Procedure: The Ability of the Compounds According to Formula I to Increase the Survival Rate of Neuronal Cells Having Been Induced to Cell Death was Assessed Using the Following Protocol
Cell death is induced at day 4 after plating by exposing the culture to medium containing 10 μg/mL of anti NGF anti-body (Boehringer Mannheim Corp., Indianapolis, Ind.) and no NGF or arabinosine, in the presence or absence of sulfonamide inhibitors. 24 hours after cell death induction, determination of cell viability is performed by incubation of the culture for 1 hour, at 37° C. in 0.5 mg/mL of 3-(4,5-dimethylthiazol-2-yl)-2,5 diphenyl tetrazolium bromide (MTT). After incubation in MTT cells are resuspended in DMSO, transferred to a 96 MTT plate and cell viability is evaluated by measuring optical density at 590 nm.

[5] = target: GST-JNK3 (Homo sapiens, UniProt P53779); test: JNK3 in vitro assay (33P incorporation into c-jun, SPA); type: biochemical
Procedure: (§1) The phosphorylation of c-jun by JNK2 or JNK3 may be followed by monitoring the incorporation of ^33P into c-jun following the protocol below. The inhibitory activity of the compounds according to formula I, in respect of c-jun phosphorylation through JNK, is determined by calculating the phosphorylation activity of a JNK in the presence or absence of the test compounds according to formula I.
(§2) JNK3 and/or -2 assays are performed in 96 well NM plates: incubation of 0.5 μg of recombinant, pre-activated GST-JNK3 or GST-JNK2 with 1 μg of recombinant, biotinylated GST-c-Jun and 2 μM ^33γ-ATP (2 nCi/μl), in the presence or absence of compounds according to formula I and in a reaction volume of 50 μl containing 50 mM Tris-HCl, pH 8.0; 10 mM MgCl2; 1 mM Dithiothreitol, and 100 μM NaVO4. The incubation is performed for 120 min. at R.T and stopped upon addition of 200 μl of a solution containing 250 μg of Streptavidine-coated SPA beads (Amersham, Inc.)*, 5 mM EDTA, 0.1% Triton X-100 and 50 μM ATP, in phosphate saline buffer. After incubation for 60 minutes at RT, beads are sedimented by centrifugation at 1500×g for 5 minutes, resuspended in 200 μl of PBS containing 5 mM EDTA, 0.1% Triton X-100 and 50 μM ATP and the radioactivity measured in a scintillation β counter, following sedimentation of the beads as described above. By replacing biotinylated GST-c Jun with biotinylated GST-1ATF2 or biotinylated myelin basic protein, this assay may also be used to measure inhibition of pre-activated p38 and ERK MAP Kinases, respectively.

[6] = target: GST-JNK2 (Homo sapiens, UniProt P45984); test: JNK2 in vitro assay (33P incorporation into c-jun, SPA); type: biochemical
Procedure: as §1, §2

[7] = test system: IL-2 release by (PMA+Ionomycin)-stimulated Jurkat cells; test: IL-2 release assay (IL-2 ELISA); type: cell-based; settings: Homo sapiens; PMA + Ionomycine stimulated Jurkat cells
Procedure: The Ability of the Compounds According to Formula I to Modulate the Inflammatory Response by Inhibiting the Release of IL-2 was Assessed Using the Following Protocol
JNK pathway activation triggers the production of inflammatory cytokines such as IL-2. JNK can be activated by external stimuli such as PMA and Ionomycine and IL-2 production can be measured via an IL-2 ELISA test. Comparative measurements with and without the compounds of the invention according to the following protocol measure the ability of the compounds to prevent to stress-mediated IL-2 release.
Jurkat cells, a human T cell leukemia cell line (American Type Culture Collection # TIB 152) were cultured in RPMI 1640 medium (Gibco, BRL) supplemented with 10% of […] fetal calf serum (FCS), Glutamine and Penstrep. The cell suspension in the medium is diluted to give 2.10^6 cells/mL. The cells were plated (2.10^5 cells/well) on a 96-well plate containing different concentrations of a compound according to formula I (final concentration of compounds, 10, 3, 1, 0.3, 0.1 μM). This mixture is incubated 30 minutes at 37° C. in a humidified CO2 atmosphere. Cells were then treated with 10 μl PMA (Phorbolmyristate-13 Acetate-12)+Ionomycine (0.1 μM and 1 μM final concentration) in all wells except negative control. In wells without compounds, 10 μl of RPMI 2% DMSO (=0.1% final) is added. Cells are incubated 24 hours at 37° C. and then the supernatant harvested (freeze at −20° C. if not used the same day) prior to performing IL-2 ELISA test on the supernatant.
IL-2 release into the medium by (PMA+Iononomycin)-stimulated Jurkat cells, in presence or absence of test compounds may be assayed by ELISA. Following the procedure described below.
Monoclonal anti-human IL-2 antibody (MAB602) (capture), biotinylated anti-human IL-2 antibody (BAF202) (detection) and recombinant human IL-2 (202-IL-010) (standard) from From R&D Systems are used. […]
• 1. […] Optical density is measured using a microtiter plate reader set to 450 nm with correction at 570 nm.

[8] = test system: gerbil bilateral carotid occlusion; test: Global ischemia in gerbils; type: in vivo; settings: 80 mg/kg
Procedure: The Ability of the JNK Inhibitors Described in Formula I to Protect Cell Death During a Stroke Event was Assessed Using the Following Protocol:
The gerbil bilateral carotid occlusion is a well-described animal model of acute ischemic stroke and involves relatively easy surgical techniques.
The neuronal degeneration in the hippocampus develops over several days and is often referred as “delayed neuronal death”. In addition, the neurodegeneration observed histologically is obvious and easily quantified (37). Furthermore, the histopathology seen in the gerbil is similar to that observed in the hippocampal CA1 region of the human brain following a cardiac arrest. Behavior observations, such as memory tests, could even be performed in the case of gerbils. This kind of tests for appreciation of the degree of recovery is not easily manageable in other models such as in rat whose learning abilities are much poorer (38).
• Anesthesia with isoflurane (0.5-4%). • The common carotid arteries (left and right) are freed from tissue. • Occlusion of the arteries using Bulldog microclamps during 5 min. • Removal of clamps (reperfusion) • Stabulation of the animals under heating lamp until awake. • Stabulation of the animals in the animalry in individual cages. Sacrifice of the Animals • 7 days after ischemia (Decapitation or overdose of pentobarbital). • Sampling of the brain. […]

Sequence of JNK1 (P45983 whole entry, species assumed): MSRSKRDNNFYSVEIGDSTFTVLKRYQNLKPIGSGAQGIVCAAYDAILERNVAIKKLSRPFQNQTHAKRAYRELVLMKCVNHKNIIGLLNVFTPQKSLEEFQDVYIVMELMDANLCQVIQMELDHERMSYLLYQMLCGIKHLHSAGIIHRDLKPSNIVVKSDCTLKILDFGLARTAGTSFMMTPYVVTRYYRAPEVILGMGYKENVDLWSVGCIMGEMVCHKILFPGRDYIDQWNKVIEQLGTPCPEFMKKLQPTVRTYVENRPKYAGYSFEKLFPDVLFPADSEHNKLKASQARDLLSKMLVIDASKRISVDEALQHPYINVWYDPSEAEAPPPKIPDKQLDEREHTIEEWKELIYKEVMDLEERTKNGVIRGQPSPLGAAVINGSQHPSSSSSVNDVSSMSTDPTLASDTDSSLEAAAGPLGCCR
Sequence of GST-JNK3 (P53779 whole entry): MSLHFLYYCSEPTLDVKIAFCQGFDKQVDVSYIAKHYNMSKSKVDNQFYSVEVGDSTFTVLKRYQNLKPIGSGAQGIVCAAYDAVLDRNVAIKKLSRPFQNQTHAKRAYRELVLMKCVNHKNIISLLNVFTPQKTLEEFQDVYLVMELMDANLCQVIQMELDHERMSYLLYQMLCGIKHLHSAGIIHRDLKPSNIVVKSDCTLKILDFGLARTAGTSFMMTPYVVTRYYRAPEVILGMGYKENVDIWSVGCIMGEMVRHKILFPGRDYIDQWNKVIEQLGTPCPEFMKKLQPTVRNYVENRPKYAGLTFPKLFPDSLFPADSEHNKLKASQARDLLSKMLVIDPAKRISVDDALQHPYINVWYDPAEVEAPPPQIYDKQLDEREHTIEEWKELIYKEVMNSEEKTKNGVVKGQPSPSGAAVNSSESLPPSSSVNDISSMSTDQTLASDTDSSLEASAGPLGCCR
Sequence of GST-JNK2 (P45984 whole entry): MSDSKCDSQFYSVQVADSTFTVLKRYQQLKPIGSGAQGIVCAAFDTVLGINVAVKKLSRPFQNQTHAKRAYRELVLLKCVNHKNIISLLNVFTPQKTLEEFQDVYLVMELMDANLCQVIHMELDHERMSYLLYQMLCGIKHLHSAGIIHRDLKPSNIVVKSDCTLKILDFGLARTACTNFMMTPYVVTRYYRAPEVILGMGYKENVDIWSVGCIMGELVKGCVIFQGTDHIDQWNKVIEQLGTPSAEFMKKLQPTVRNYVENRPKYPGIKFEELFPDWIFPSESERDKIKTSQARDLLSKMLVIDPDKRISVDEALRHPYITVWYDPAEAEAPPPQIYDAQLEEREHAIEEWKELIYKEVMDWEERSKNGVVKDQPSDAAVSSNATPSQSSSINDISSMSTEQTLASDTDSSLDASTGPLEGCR

O=C(NCc1ccc(S(=O)(=O)N2CCC(NCc3ccc(C(F)(F)F)cc3)CC2)s1)c1ccc[nH]c1=O [Example 198, 2-Oxo-N-({5-[(4-{[4-(trifluoromethyl)benzyl]amino}-1-piperidinyl)sulfonyl]-2-thienyl}methyl)-1,2-dihydro-3-pyridinecarboxamide]
IC50 [1]: 100 to 700 nM
solubility [2]: ≥ 200 µg/mL

CCCCCCNC1CCN(S(=O)(=O)c2ccc(CNC(=O)c3ccc(Cl)cc3)s2)CC1 [Example 63, 4-Chloro-N-[(5-{[4-(hexylamino)piperidin-1-yl]sulfonyl}thien-2-yl)methyl]benzamide]
inhibition of IFNγ production ([3]; 1 mg/kg): 65%
inhibition of TNFα production ([3]; 10 mg/kg): 40%
rescue rate of SCG cells [4]: 35%
IC50 [1]: 100 to 700 nM
IC50 [5]: < 600 nM
solubility [2]: ≥ 200 µg/mL
IC50 [6]: < 600 nM

CCCCNC1CCN(S(=O)(=O)c2ccc(CNC(=O)c3ccc(Cl)cc3)s2)CC1 [Example 68, 4-chloro-N-[(5-{[4-(butylamino)piperidin-1-yl]sulfonyl}thien-2-yl)methyl]benzamide]
IC50 [7]: < 800 nM
inhibition of global ischemia (% inhibition of total lesion) [8]: 64%

O=C(NCc1ccc(S(=O)(=O)N2CCC(NCc3ccc(C(F)(F)F)cc3)CC2)s1)c1ccc[nH]c1=O (as salt: HCl) [Example 198, 2-Oxo-N-({5-[(4-{[4-(trifluoromethyl)benzyl]amino}-1-piperidinyl)sulfonyl]-2-thienyl}methyl)-1,2-dihydro-3-pyridinecarboxamide]
melting point: 288 to 289 °C
